# Assay results as given in ChEMBL document CHEMBL1153172, “Oxo-bridged isomers of aza-trishomocubane sigma (sigma) receptor ligands: Synthesis, in vitro binding, and molecular modeling” (Bioorg Med Chem Lett, 2010).
# pKi: −log10 of the molar value.
# Key:
# [1] = target: Cannabinoid receptor 2 (Homo sapiens) (UniProt P34972); assay: Inhibition of CB2 receptor at 10 uM
# [2] = target: 5-hydroxytryptamine receptor 1E (Homo sapiens) (UniProt P28566); assay: Inhibition of 5HT1E receptor at 10 uM
# [3] = target: Alpha-2A adrenergic receptor (Homo sapiens) (UniProt P08913); assay: Inhibition of Alpha2A adrenoceptor receptor at 10 uM
# [4] = target: Cannabinoid receptor 1 (Homo sapiens) (UniProt P21554); assay: Inhibition of CB1 receptor at 10 uM
# [5] = target: Beta-1 adrenergic receptor (Homo sapiens) (UniProt P08588); assay: Inhibition of beta-1 adrenoceptor receptor at 10 uM
# [6] = target: 5-hydroxytryptamine receptor 2B (Homo sapiens) (UniProt P41595); assay: Inhibition of 5HT2B receptor at 10 uM
# Sequence of 5-hydroxytryptamine receptor 2B (Homo sapiens) (P41595 whole entry): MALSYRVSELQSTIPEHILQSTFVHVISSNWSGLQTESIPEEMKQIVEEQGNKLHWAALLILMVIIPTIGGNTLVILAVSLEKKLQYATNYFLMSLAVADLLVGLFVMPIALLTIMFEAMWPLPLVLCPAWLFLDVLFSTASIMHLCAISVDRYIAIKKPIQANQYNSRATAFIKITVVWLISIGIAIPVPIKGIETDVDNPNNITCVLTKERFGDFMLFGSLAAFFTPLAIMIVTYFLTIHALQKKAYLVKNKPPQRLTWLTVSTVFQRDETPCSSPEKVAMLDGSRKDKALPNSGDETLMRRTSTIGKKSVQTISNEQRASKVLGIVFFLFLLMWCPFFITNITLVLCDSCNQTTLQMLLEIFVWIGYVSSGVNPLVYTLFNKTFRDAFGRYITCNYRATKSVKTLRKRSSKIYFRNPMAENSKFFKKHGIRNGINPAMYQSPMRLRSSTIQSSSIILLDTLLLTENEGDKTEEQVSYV
# [7] = target: Histamine H4 receptor (Homo sapiens) (UniProt Q9H3N8); assay: Inhibition of histamine H4 receptor at 10 uM
# [8] = target: Kappa-type opioid receptor (Homo sapiens) (UniProt P41145); assay: Inhibition of Kappa opioid receptor at 10 uM
# [9] = target: 5-hydroxytryptamine receptor 1A (Homo sapiens) (UniProt P08908); assay: Inhibition of 5HT1A receptor at 10 uM
# [10] = target: 5-hydroxytryptamine receptor 7 (Homo sapiens) (UniProt P34969); assay: Inhibition of 5HT7 receptor at 10 uM
# Sequence of 5-hydroxytryptamine receptor 7 (Homo sapiens) (P34969 whole entry): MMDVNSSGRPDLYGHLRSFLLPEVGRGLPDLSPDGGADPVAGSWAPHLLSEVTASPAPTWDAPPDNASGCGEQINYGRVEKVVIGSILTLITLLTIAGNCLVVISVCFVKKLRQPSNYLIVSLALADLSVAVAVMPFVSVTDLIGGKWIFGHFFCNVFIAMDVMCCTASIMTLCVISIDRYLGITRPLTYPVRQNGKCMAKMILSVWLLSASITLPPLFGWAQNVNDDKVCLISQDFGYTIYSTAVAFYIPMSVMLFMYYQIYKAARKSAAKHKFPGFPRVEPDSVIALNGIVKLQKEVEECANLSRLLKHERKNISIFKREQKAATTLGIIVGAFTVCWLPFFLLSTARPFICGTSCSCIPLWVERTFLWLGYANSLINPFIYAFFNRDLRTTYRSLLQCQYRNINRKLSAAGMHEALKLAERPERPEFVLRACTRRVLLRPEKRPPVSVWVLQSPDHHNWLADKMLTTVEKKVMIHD
# [11] = target: Beta-2 adrenergic receptor (Homo sapiens) (UniProt P07550); assay: Inhibition of beta2 adrenoceptor receptor at 10 uM
# Sequence of Beta-2 adrenergic receptor (Homo sapiens) (P07550 whole entry, looked up): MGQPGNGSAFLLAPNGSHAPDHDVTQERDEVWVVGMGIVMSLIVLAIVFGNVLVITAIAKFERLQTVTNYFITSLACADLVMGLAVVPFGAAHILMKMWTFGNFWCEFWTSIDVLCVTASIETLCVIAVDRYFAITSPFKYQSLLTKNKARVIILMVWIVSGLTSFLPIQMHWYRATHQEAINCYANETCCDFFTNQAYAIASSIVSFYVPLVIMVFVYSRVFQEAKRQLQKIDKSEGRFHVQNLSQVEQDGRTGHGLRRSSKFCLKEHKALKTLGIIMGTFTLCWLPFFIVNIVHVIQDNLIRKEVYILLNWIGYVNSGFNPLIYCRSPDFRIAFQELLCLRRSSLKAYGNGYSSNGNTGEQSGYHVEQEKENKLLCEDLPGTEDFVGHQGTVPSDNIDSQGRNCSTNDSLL
# [12] = target: T1, Sodium-dependent noradrenaline transporter (Homo sapiens, UniProt P23975); assay: Inhibition of NET at 10 uM
# [13] = target: Histamine H1 receptor (Homo sapiens) (UniProt P35367); assay: Inhibition of histamine H1 receptor at 10 uM
# Sequence of Histamine H1 receptor (Homo sapiens) (P35367 whole entry): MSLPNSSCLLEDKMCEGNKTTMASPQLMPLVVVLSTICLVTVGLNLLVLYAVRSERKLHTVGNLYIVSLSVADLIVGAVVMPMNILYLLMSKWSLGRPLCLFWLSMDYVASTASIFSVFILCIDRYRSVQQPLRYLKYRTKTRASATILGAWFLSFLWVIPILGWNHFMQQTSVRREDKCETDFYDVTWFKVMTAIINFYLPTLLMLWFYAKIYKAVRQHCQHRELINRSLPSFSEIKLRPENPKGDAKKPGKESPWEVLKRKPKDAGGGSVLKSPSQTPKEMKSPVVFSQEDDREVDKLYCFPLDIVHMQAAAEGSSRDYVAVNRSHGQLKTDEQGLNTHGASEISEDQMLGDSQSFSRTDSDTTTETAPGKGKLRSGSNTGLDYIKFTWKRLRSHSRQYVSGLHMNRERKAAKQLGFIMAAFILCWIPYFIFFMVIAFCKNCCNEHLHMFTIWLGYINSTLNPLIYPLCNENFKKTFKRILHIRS
# [14] = target: 5-hydroxytryptamine receptor 6 (Homo sapiens) (UniProt P50406); assay: Inhibition of 5HT6 receptor at 10 uM
# Sequence of 5-hydroxytryptamine receptor 6 (Homo sapiens) (P50406 whole entry): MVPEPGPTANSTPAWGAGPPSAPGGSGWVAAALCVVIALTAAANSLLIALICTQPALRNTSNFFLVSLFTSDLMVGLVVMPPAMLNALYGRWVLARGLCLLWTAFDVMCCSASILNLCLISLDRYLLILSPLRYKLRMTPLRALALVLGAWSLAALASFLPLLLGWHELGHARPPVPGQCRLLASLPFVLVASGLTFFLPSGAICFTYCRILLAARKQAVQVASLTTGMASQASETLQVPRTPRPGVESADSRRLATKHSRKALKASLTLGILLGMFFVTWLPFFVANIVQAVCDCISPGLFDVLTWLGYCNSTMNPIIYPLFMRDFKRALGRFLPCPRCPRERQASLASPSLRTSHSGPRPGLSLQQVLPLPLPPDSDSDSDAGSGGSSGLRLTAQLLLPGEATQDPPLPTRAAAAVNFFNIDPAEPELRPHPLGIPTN
# [15] = target: Alpha-1A adrenergic receptor (Homo sapiens) (UniProt P35348); assay: Inhibition of Alpha1A adrenoceptor receptor at 10 uM
# [16] = target: Histamine H2 receptor (Homo sapiens) (UniProt P25021); assay: Inhibition of histamine H2 receptor at 10 uM
# [17] = target: Alpha-2B adrenergic receptor (Homo sapiens) (UniProt P18089); assay: Inhibition of Alpha2B adrenoceptor receptor at 10 uM
# [18] = Selectivity, ratio of Ki for sigma 1 to Ki for sigma 2
# [19] = target: 5-hydroxytryptamine receptor 2A (Homo sapiens) (UniProt P28223); assay: Inhibition of 5HT2A receptor at 10 uM
# Sequence of 5-hydroxytryptamine receptor 2A (Homo sapiens) (P28223 whole entry): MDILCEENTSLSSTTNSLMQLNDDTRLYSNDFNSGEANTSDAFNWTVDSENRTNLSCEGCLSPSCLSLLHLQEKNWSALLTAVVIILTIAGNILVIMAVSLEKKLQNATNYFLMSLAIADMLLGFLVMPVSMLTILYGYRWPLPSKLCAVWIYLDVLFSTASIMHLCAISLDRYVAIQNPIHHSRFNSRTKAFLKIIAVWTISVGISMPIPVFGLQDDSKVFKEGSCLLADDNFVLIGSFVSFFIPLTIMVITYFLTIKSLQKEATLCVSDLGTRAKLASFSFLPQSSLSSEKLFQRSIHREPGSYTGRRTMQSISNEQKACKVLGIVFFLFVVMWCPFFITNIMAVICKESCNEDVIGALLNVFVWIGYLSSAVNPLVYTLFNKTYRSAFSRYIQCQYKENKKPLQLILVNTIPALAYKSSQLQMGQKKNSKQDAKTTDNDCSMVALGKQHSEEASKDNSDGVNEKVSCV
# [20] = target: Histamine H3 receptor (Homo sapiens) (UniProt Q9Y5N1); assay: Inhibition of histamine H3 receptor at 10 uM
# Sequence of Histamine H3 receptor (Homo sapiens) (Q9Y5N1 whole entry): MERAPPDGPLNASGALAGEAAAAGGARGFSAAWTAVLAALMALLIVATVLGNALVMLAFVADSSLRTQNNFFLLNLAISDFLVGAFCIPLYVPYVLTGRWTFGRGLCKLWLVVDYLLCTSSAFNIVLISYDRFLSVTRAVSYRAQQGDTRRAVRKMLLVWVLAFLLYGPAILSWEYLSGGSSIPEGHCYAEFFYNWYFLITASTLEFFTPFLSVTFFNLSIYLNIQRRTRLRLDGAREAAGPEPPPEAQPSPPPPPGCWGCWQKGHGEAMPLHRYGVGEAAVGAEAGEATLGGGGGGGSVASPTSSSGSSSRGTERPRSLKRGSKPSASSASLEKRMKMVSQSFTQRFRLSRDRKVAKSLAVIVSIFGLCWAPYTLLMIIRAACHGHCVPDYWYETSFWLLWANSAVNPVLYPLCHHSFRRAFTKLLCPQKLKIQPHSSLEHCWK
# [21] = target: Mu-type opioid receptor (Homo sapiens) (UniProt P35372); assay: Inhibition of mu opioid receptor at 10 uM
# [22] = target: 5-hydroxytryptamine receptor 1B (Homo sapiens) (UniProt P28222); assay: Inhibition of 5HT1B receptor at 10 uM
# [23] = target: Alpha-1B adrenergic receptor (Homo sapiens) (UniProt P35368); assay: Inhibition of Alpha1B adrenoceptor receptor at 10 uM
# Sequence of Alpha-1B adrenergic receptor (Homo sapiens) (P35368 whole entry): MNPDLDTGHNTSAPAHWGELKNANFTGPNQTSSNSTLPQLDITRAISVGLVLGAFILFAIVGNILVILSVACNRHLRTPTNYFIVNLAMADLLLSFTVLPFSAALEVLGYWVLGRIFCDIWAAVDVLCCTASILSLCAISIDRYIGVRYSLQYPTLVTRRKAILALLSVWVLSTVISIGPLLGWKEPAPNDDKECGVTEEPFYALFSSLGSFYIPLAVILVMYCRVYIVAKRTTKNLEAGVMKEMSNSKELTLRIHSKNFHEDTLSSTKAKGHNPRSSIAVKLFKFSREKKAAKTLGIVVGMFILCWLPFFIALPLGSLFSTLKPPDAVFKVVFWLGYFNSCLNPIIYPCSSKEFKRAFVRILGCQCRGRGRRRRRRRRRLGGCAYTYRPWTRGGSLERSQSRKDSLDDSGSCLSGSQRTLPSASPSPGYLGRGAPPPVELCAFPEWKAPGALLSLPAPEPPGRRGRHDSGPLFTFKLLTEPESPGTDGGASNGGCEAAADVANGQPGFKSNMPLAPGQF
# [24] = target: 5-hydroxytryptamine receptor 2C (Homo sapiens) (UniProt P28335); assay: Inhibition of 5HT2C receptor at 10 uM
# [25] = target: 5-hydroxytryptamine receptor 1D (Homo sapiens) (UniProt P28221); assay: Inhibition of 5HT1D receptor at 10 uM
# Sequence of 5-hydroxytryptamine receptor 1D (Homo sapiens) (P28221 whole entry): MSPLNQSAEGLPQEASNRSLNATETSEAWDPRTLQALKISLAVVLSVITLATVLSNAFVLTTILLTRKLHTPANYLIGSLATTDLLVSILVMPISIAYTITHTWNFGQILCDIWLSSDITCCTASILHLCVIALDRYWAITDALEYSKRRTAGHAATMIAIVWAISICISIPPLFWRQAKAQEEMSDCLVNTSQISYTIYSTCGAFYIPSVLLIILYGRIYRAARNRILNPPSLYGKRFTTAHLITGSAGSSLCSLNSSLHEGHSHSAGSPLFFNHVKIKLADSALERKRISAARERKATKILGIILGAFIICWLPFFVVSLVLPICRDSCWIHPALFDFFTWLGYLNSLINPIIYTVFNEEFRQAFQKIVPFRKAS
# [26] = target: D(1A) dopamine receptor (Homo sapiens) (UniProt P21728); assay: Inhibition of D1 receptor at 10 uM
# [27] = target: T2, Sodium-dependent dopamine transporter (Homo sapiens, UniProt Q01959); assay: Binding affinity to DAT
# T2 sequence (Q01959 whole entry): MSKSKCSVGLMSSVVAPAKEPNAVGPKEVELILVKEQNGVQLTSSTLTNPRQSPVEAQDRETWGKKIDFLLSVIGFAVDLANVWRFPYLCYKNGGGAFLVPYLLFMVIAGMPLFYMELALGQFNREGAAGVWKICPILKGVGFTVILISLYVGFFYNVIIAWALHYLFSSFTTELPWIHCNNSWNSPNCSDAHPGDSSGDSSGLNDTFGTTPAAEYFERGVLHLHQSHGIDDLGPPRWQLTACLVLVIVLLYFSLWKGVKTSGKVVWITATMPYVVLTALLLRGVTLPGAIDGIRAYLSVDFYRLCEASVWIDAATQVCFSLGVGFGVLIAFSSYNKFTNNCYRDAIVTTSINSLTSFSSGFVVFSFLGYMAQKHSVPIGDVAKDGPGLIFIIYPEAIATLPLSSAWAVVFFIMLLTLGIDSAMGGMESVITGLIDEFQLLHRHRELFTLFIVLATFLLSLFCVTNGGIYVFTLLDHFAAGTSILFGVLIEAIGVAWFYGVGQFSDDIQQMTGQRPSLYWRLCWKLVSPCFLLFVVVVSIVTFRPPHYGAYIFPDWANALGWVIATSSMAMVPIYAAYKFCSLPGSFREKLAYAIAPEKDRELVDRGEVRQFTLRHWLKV
# [28] = target: 5-hydroxytryptamine receptor 5A (Homo sapiens) (UniProt P47898); assay: Inhibition of 5HT5A receptor at 10 uM
# [29] = target: T3, Alpha-2C adrenergic receptor (Homo sapiens) (UniProt P18825); assay: Inhibition of Alpha2C adrenoceptor receptor at 10 uM
# T3 sequence (whole entry): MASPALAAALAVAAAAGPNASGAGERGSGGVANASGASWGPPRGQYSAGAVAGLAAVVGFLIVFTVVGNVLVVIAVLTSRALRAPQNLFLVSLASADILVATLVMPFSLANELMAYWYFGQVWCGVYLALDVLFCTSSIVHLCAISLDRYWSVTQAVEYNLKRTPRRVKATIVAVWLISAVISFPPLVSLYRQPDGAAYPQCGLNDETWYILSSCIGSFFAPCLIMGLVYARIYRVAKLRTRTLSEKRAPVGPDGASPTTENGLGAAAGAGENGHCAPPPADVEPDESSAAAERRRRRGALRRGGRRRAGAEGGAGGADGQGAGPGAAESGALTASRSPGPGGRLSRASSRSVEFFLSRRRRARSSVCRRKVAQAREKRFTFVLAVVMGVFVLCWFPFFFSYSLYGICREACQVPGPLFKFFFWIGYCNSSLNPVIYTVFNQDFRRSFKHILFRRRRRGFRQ
# [30] = target: Sigma non-opioid intracellular receptor 1 (Homo sapiens, UniProt Q99720); assay: Binding affinity to sigma 1 receptor
# Sequence of Sigma non-opioid intracellular receptor 1 (Q99720 whole entry): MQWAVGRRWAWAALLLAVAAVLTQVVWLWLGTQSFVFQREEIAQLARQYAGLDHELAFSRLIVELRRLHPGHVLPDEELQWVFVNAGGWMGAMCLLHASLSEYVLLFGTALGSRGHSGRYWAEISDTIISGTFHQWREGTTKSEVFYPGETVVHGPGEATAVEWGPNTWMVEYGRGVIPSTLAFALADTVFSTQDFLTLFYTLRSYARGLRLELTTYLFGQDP
# [31] = target: D(2) dopamine receptor (Homo sapiens) (UniProt P14416); assay: Inhibition of D2 receptor at 10 uM
# [32] = target: 5-hydroxytryptamine receptor 3A (Homo sapiens) (UniProt P46098); assay: Inhibition of 5HT3 receptor at 10 uM
# [33] = Inhibition of phencyclidine binding site of NMDA receptor at 10 uM
# [34] = Binding affinity to sigma 2 receptor
# [35] = target: Delta-type opioid receptor (Homo sapiens) (UniProt P41143); assay: Inhibition of Delta opioid receptor at 10 uM
# [36] = Inhibition of Ca2+ channel at 10 uM
# [37] = Inhibition of 5HT receptor at 10 uM
# [38] = target: T2, Sodium-dependent dopamine transporter; assay: Inhibition of DAT at 10 uM
# [39] = target: T4, Alpha-2C adrenergic receptor (Homo sapiens, UniProt P18825); assay: (§1) Binding affinity to Alpha2C adrenoceptor receptor
# T4 sequence (P18825 whole entry): T3 sequence (whole entry)
# [40] = target: 5-hydroxytryptamine receptor 1A (Homo sapiens, UniProt P08908); assay: Binding affinity to 5HT1A receptor
# [41] = target: T1, Sodium-dependent noradrenaline transporter; assay: Binding affinity to NET
# [42] = target: 5-hydroxytryptamine receptor 4 (Homo sapiens) (UniProt Q13639); assay: Inhibition of 5HT4 receptor at 10 uM
# [43] = target: T4, Alpha-2C adrenergic receptor; assay: as §1; remark: listed apart in the source
smiles,measurement,setting,value
Fc1cccc(CNC23OC4C5C6CC(C7C6C4C72)C53)c1 (stereo not drawn),inhibition,[1],< 50%
same,inhibition,[2],< 50%
same,inhibition,[3],< 50%
same,inhibition,[4],< 50%
same,inhibition,[5],< 50%
same,inhibition,[6],< 50%
same,inhibition,[7],< 50%
same,inhibition,[8],< 50%
same,inhibition,[9],< 50%
same,inhibition,[10],< 50%
same,inhibition,[11],< 50%
same,inhibition,[12],< 50%
same,inhibition,[13],< 50%
same,inhibition,[14],< 50%
same,inhibition,[15],< 50%
same,inhibition,[16],< 50%
same,inhibition,[17],< 50%
same,Ratio,[18],1.39
same,inhibition,[19],< 50%
same,inhibition,[20],< 50%
same,inhibition,[21],< 50%
same,inhibition,[22],< 50%
same,inhibition,[23],< 50%
same,inhibition,[24],< 50%
same,inhibition,[25],< 50%
same,inhibition,[26],< 50%
same,pKi,[27],< 5.00
same,inhibition,[28],< 50%
same,inhibition,[29],< 50%
same,pKi,[30],5.64
same,inhibition,[31],< 50%
same,inhibition,[32],< 50%
same,inhibition,[33],< 50%
same,pKi,[34],5.78
same,inhibition,[35],< 50%
same,inhibition,[36],< 50%
same,inhibition,[37],< 50%
same,inhibition,[38],< 50%
OC12C3C4CC5C6C4C1C6C(C53)N2Cc1cccc(F)c1 (stereo not drawn),Ratio,[18],4.94
same,pKi,[27],< 5.00
same,inhibition,[29],< 50%
same,pKi,[30],6.82
same,pKi,[34],7.51
same,inhibition,[37],< 50%
same,inhibition,[38],< 50%
same,pKi,[39],< 5.00
Fc1cccc(CCNC23OC4C5C6CC(C7C6C4C72)C53)c1 (stereo not drawn),inhibition,[1],< 50%
same,inhibition,[2],< 50%
same,inhibition,[3],< 50%
same,pKi,[40],< 5.00
same,pKi,[41],< 5.00
same,inhibition,[4],< 50%
same,inhibition,[5],< 50%
same,inhibition,[6],< 50%
same,inhibition,[7],< 50%
same,inhibition,[8],< 50%
same,inhibition,[10],< 50%
same,inhibition,[11],< 50%
same,inhibition,[13],< 50%
same,inhibition,[14],< 50%
same,inhibition,[15],< 50%
same,inhibition,[16],< 50%
same,inhibition,[42],< 50%
same,inhibition,[17],< 50%
same,Ratio,[18],0.41
same,inhibition,[19],< 50%
same,inhibition,[20],< 50%
same,inhibition,[21],< 50%
same,inhibition,[22],< 50%
same,inhibition,[23],< 50%
same,inhibition,[24],< 50%
same,inhibition,[25],< 50%
same,inhibition,[26],< 50%
same,pKi,[43],7.70
same,pKi,[27],6.86
same,inhibition,[28],< 50%
same,pKi,[30],6.83
same,inhibition,[31],< 50%
same,inhibition,[32],< 50%
same,inhibition,[33],< 50%
same,pKi,[34],6.44
same,inhibition,[35],< 50%
same,inhibition,[36],< 50%
same,inhibition,[37],< 50%
same,pKi,[39],7.70
OC12C3C4CC5C6C4C1C6C(C53)N2CCc1cccc(F)c1 (stereo not drawn),Ratio,[18],0.25
same,pKi,[27],< 5.00
same,inhibition,[29],< 50%
same,pKi,[30],7.92
same,pKi,[34],7.32
same,inhibition,[37],< 50%
same,inhibition,[38],< 50%
same,pKi,[39],< 5.00
